Reference: the NIST ThermoML archive (doi:10.1021/acs.jced.6b00496)
± gives the expanded uncertainty stated by the source.

Assay: xn = mol fraction of the nth substance listed
Conditions: 81.5 kPa, Liquid; for speed of sound: Sing-around technique in a fixed-path interferometer; for mass density: Vibrating tube method

CCn1cc[n+](C)c1.F[B-](F)(F)F [1-ethyl-3-methylimidazolium tetrafluoroborate] + CN(C)C=O
Conditions	mass density [kg/m3]	speed of sound [m/s]
293.15 K, x1 = 0.0997	1019.18 ± 4.1	1524.5 ± 3.1
293.15 K, x1 = 0.2042	1075.44 ± 4.3	1552.3 ± 3.1
293.15 K, x1 = 0.2983	1116.82 ± 4.5	1571.7 ± 3.2
293.15 K, x1 = 0.4111	1157.47 ± 4.6	1589.3 ± 3.2
293.15 K, x1 = 0.5003	1184.76 ± 4.8	1600.9 ± 3.3
293.15 K, x1 = 0.585	1206.75 ± 4.9	1609.6 ± 3.3
293.15 K, x1 = 0.6965	1231.36 ± 5	1618.8 ± 3.4
293.15 K, x1 = 0.7833	1247.19 ± 5.1	1625.5 ± 3.5
293.15 K, x1 = 0.9134	1267.67 ± 5.2	1633.1 ± 3.6
293.15 K, x1 = 1	1285.95 ± 5.3	1640.4 ± 3.7
298.15 K, x1 = 0.0997	1014.69 ± 4.1	1506.5 ± 3.1
298.15 K, x1 = 0.2042	1071.12 ± 4.3	1535.6 ± 3.1
298.15 K, x1 = 0.2983	1112.62 ± 4.5	1555.9 ± 3.2
298.15 K, x1 = 0.4111	1153.38 ± 4.6	1574.6 ± 3.2
298.15 K, x1 = 0.5003	1180.74 ± 4.7	1586.9 ± 3.3
298.15 K, x1 = 0.585	1202.77 ± 4.8	1596.1 ± 3.3
298.15 K, x1 = 0.6965	1227.44 ± 5	1605.9 ± 3.4
298.15 K, x1 = 0.7833	1243.3 ± 5	1612.9 ± 3.5
298.15 K, x1 = 0.9134	1263.82 ± 5.2	1620.9 ± 3.6
298.15 K, x1 = 1	1282.14 ± 5.3	1628.4 ± 3.7
303.15 K, x1 = 0.0997	1010.19 ± 4	1488.6 ± 3.1
303.15 K, x1 = 0.2042	1066.81 ± 4.3	1519 ± 3.1
303.15 K, x1 = 0.2983	1108.42 ± 4.4	1540.4 ± 3.2
303.15 K, x1 = 0.4111	1149.29 ± 4.6	1560.1 ± 3.2
303.15 K, x1 = 0.5003	1176.72 ± 4.7	1573 ± 3.3
303.15 K, x1 = 0.585	1198.81 ± 4.8	1582.7 ± 3.3
303.15 K, x1 = 0.6965	1223.53 ± 4.9	1593 ± 3.4
303.15 K, x1 = 0.7833	1239.43 ± 5	1600.5 ± 3.5
303.15 K, x1 = 0.9134	1259.99 ± 5.2	1608.8 ± 3.6
303.15 K, x1 = 1	1278.34 ± 5.3	1616 ± 3.7
308.15 K, x1 = 0.0997	1005.7 ± 4	1470.8 ± 3.1
308.15 K, x1 = 0.2042	1062.49 ± 4.3	1502.6 ± 3.1
308.15 K, x1 = 0.2983	1104.23 ± 4.4	1524.9 ± 3.2
308.15 K, x1 = 0.4111	1145.23 ± 4.6	1545.6 ± 3.2
308.15 K, x1 = 0.5003	1172.72 ± 4.7	1559.2 ± 3.3
308.15 K, x1 = 0.585	1194.86 ± 4.8	1569.4 ± 3.3
308.15 K, x1 = 0.6965	1219.63 ± 4.9	1580.3 ± 3.4
308.15 K, x1 = 0.7833	1235.57 ± 5	1588.2 ± 3.5
308.15 K, x1 = 0.9134	1256.17 ± 5.1	1596.9 ± 3.6
308.15 K, x1 = 1	1274.55 ± 5.3	1604.9 ± 3.7
313.15 K, x1 = 0.0997	1001.2 ± 4	1453.1 ± 3.1
313.15 K, x1 = 0.2042	1058.19 ± 4.2	1486.2 ± 3.1
313.15 K, x1 = 0.2983	1100.05 ± 4.4	1509.6 ± 3.2
313.15 K, x1 = 0.4111	1141.17 ± 4.6	1531.3 ± 3.2
313.15 K, x1 = 0.5003	1168.73 ± 4.7	1545.6 ± 3.3
313.15 K, x1 = 0.585	1190.92 ± 4.8	1556.3 ± 3.3
313.15 K, x1 = 0.6965	1215.75 ± 4.9	1567.7 ± 3.4
313.15 K, x1 = 0.7833	1231.73 ± 5	1576 ± 3.5
313.15 K, x1 = 0.9134	1252.37 ± 5.1	1585 ± 3.6
313.15 K, x1 = 1	1270.78 ± 5.2	1593.4 ± 3.7
318.15 K, x1 = 0.0997	996.709 ± 4	1435.6 ± 3.1
318.15 K, x1 = 0.2042	1053.89 ± 4.2	1470 ± 3.1
318.15 K, x1 = 0.2983	1095.88 ± 4.4	1494.4 ± 3.2
318.15 K, x1 = 0.4111	1137.12 ± 4.6	1517.1 ± 3.2
318.15 K, x1 = 0.5003	1164.76 ± 4.7	1532 ± 3.3
318.15 K, x1 = 0.585	1187 ± 4.8	1543.3 ± 3.3
318.15 K, x1 = 0.6965	1211.89 ± 4.9	1555.3 ± 3.4
318.15 K, x1 = 0.7833	1227.91 ± 5	1563.9 ± 3.5
318.15 K, x1 = 0.9134	1248.58 ± 5.1	1573.3 ± 3.6
318.15 K, x1 = 1	1267.03 ± 5.2	1582 ± 3.7
323.15 K, x1 = 0.0997	992.209 ± 4	1418.1 ± 3.1
323.15 K, x1 = 0.2042	1049.59 ± 4.2	1453.8 ± 3.1
323.15 K, x1 = 0.2983	1091.72 ± 4.4	1479.3 ± 3.2
323.15 K, x1 = 0.4111	1133.08 ± 4.5	1503 ± 3.2
323.15 K, x1 = 0.5003	1160.79 ± 4.7	1518.6 ± 3.3
323.15 K, x1 = 0.585	1183.1 ± 4.8	1530.4 ± 3.3
323.15 K, x1 = 0.6965	1208.05 ± 4.9	1542.9 ± 3.4
323.15 K, x1 = 0.7833	1224.11 ± 5	1551.9 ± 3.5
323.15 K, x1 = 0.9134	1244.82 ± 5.1	1561.7 ± 3.6
323.15 K, x1 = 1	1263.3 ± 5.2	1570.6 ± 3.7
328.15 K, x1 = 0.0997	987.708 ± 4	1400.7 ± 3.1
328.15 K, x1 = 0.2042	1045.31 ± 4.2	1437.8 ± 3.1
328.15 K, x1 = 0.2983	1087.57 ± 4.4	1464.2 ± 3.2
328.15 K, x1 = 0.4111	1129.05 ± 4.5	1489 ± 3.2
328.15 K, x1 = 0.5003	1156.85 ± 4.6	1505.2 ± 3.3
328.15 K, x1 = 0.585	1179.21 ± 4.7	1517.6 ± 3.3
328.15 K, x1 = 0.6965	1204.22 ± 4.9	1530.6 ± 3.4
328.15 K, x1 = 0.7833	1220.32 ± 4.9	1540 ± 3.5
328.15 K, x1 = 0.9134	1241.07 ± 5.1	1550.1 ± 3.6
328.15 K, x1 = 1	1259.58 ± 5.2	1559.4 ± 3.7
333.15 K, x1 = 0.0997	983.204 ± 3.9	1383.3 ± 3.1
333.15 K, x1 = 0.2042	1041.01 ± 4.2	1421.8 ± 3.1
333.15 K, x1 = 0.2983	1083.42 ± 4.3	1449.3 ± 3.2
333.15 K, x1 = 0.4111	1125.03 ± 4.5	1475 ± 3.2
333.15 K, x1 = 0.5003	1152.91 ± 4.6	1492 ± 3.3
333.15 K, x1 = 0.585	1175.33 ± 4.7	1504.8 ± 3.3
333.15 K, x1 = 0.6965	1200.41 ± 4.8	1518.4 ± 3.4
333.15 K, x1 = 0.7833	1216.55 ± 4.9	1528.2 ± 3.5
333.15 K, x1 = 0.9134	1237.34 ± 5.1	1538.7 ± 3.6
333.15 K, x1 = 1	1255.88 ± 5.2	1548.2 ± 3.7
338.15 K, x1 = 0.0997	978.699 ± 3.9	1366.1 ± 3.1
338.15 K, x1 = 0.2042	1036.73 ± 4.1	1405.9 ± 3.1
338.15 K, x1 = 0.2983	1079.28 ± 4.3	1434.5 ± 3.2
338.15 K, x1 = 0.4111	1121.03 ± 4.5	1461.2 ± 3.2
338.15 K, x1 = 0.5003	1148.99 ± 4.6	1478.9 ± 3.3
338.15 K, x1 = 0.585	1171.47 ± 4.7	1492.2 ± 3.3
338.15 K, x1 = 0.6965	1196.61 ± 4.8	1506.4 ± 3.4
338.15 K, x1 = 0.7833	1212.8 ± 4.9	1516.5 ± 3.5
338.15 K, x1 = 0.9134	1233.63 ± 5	1527.4 ± 3.6
338.15 K, x1 = 1	1252.2 ± 5.2	1537.2 ± 3.7
343.15 K, x1 = 0.0997	974.184 ± 3.9	1348.9 ± 3.1
343.15 K, x1 = 0.2042	1032.45 ± 4.1	1390.2 ± 3.1
343.15 K, x1 = 0.2983	1075.15 ± 4.3	1419.8 ± 3.2
343.15 K, x1 = 0.4111	1117.03 ± 4.5	1447.5 ± 3.2
343.15 K, x1 = 0.5003	1145.07 ± 4.6	1465.8 ± 3.3
343.15 K, x1 = 0.585	1167.62 ± 4.7	1479.7 ± 3.3
343.15 K, x1 = 0.6965	1192.82 ± 4.8	1494.4 ± 3.4
343.15 K, x1 = 0.7833	1209.06 ± 4.9	1504.9 ± 3.5
343.15 K, x1 = 0.9134	1229.93 ± 5	1516.1 ± 3.6
343.15 K, x1 = 1	1248.54 ± 5.2	1526.2 ± 3.7
